These results are taken from ChEMBL document CHEMBL1136369, “N,N-disubstituted piperazines: synthesis and affinities at alpha4beta2(*) and alpha7(*) neuronal nicotinic acetylcholine receptors” (Bioorg Med Chem Lett, 2003).

One may read the pKi as −log10 of the Ki, conventionally taken in molar units. The low end stands for a high Ki, the high end for a low Ki.

Assay [1] deals with Neuronal acetylcholine receptor subunit alpha-7 (Rattus norvegicus, UniProt Q05941). The experiment in a line: Binding affinity towards alpha-7 neuronal nicotinic acetylcholine receptor (nAChRs) measured by using the inhibition of [3H]-MLA binding to whole brain membrane.
In assay [2] the target is Neuronal acetylcholine receptor; alpha4/beta2 (Rattus norvegicus, UniProt P09483+P12390). The assay can be described thus: Binding affinity towards alpha4-beta2 measured by using the inhibition of [3H]NIC binding to rat striatal membrane. On the set-up: species or system Striatum.

pKi: −log10 of the molar value.

Chain of Neuronal acetylcholine receptor; alpha4/beta2 (P09483 whole entry): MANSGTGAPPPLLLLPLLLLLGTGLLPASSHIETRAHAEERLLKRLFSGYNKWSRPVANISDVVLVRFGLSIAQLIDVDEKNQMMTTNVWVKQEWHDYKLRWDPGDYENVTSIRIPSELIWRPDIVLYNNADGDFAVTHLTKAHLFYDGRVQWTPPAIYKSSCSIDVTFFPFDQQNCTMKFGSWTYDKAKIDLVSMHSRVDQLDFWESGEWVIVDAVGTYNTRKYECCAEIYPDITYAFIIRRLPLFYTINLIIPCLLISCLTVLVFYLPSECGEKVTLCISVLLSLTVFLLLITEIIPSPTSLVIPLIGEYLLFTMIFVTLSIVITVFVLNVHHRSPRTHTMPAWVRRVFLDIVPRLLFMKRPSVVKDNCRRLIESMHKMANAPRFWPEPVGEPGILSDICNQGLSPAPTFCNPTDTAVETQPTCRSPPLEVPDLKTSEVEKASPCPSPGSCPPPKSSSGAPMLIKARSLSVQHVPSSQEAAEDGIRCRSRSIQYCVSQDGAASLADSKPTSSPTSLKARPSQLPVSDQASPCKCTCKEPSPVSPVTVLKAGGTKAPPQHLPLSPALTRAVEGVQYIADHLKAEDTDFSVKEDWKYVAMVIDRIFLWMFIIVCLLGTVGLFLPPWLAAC
Chain of Neuronal acetylcholine receptor; alpha4/beta2 (P12390 whole entry): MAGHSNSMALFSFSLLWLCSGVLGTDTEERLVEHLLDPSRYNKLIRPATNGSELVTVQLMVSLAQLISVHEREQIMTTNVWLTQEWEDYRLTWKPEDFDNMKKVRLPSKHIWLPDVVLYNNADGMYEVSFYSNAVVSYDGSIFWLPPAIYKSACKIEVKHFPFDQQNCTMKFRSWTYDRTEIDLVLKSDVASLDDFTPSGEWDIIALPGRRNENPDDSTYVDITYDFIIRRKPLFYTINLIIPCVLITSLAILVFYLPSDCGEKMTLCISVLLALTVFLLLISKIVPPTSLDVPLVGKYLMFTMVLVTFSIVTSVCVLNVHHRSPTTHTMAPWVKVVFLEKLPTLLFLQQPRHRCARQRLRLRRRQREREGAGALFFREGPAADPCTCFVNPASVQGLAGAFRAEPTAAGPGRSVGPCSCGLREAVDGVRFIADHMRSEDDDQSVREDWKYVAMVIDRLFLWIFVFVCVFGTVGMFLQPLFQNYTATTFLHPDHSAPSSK
Chain of Neuronal acetylcholine receptor subunit alpha-7 (Q05941 whole entry): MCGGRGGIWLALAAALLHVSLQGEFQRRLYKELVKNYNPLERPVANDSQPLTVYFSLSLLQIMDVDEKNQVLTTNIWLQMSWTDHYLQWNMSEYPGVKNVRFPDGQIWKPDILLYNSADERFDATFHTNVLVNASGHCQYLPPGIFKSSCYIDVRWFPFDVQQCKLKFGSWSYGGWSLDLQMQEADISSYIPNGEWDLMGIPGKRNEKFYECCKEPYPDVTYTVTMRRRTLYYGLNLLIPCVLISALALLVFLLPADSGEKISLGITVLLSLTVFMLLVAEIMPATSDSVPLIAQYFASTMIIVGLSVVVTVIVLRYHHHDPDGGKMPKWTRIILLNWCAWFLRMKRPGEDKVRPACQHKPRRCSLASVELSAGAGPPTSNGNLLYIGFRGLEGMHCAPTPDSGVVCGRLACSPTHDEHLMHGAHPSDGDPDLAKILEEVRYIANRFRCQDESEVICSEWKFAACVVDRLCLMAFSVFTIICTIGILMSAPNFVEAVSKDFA

In assay [1], `CN1CCC[C@H]1CN1CCN(Cc2cccnc2)CC1` gave a pKi below 4.00. With `O=C([C@@H]1CCCN1)N1CCN(Cc2ccccn2)CC1`, the pKi in assay [2] and in assay [1] was below 4.00 in each case. As to `CN1CCC[C@H]1CN1CCN(Cc2ccncc2)CC1`, the pKi in assay [2] is 4.41; in assay [1] it was below 4.00. Regarding `c1cncc(CN2CCN(C[C@@H]3CCCN3)CC2)c1`, the pKi in assay [2] and in assay [1] was below 4.00 throughout. Turning to `c1cc(CN2CCN(C[C@@H]3CCCN3)CC2)ccn1`, the values for the pKi in assay [2] and in assay [1] were 4.34 and below 4.00, respectively. Take `O=C(C1CCCCN1)N1CCN(Cc2ccncc2)CC1` (racemic): the pKi was 4.22 in assay [2] and below 4.00 in assay [1]. In assay [1], `CN1CCCCC1CN1CCN(Cc2cccnc2)CC1` (racemic) showed a pKi below 4.00. For the compound `O=C(C1CCCCN1)N1CCN(Cc2ccccn2)CC1` (racemic), the pKi in assay [2] and in assay [1] was below 4.00 each time. In the case of `CN1CCCCC1CN1CCN(Cc2ccncc2)CC1` (racemic), the negative-log Ki (pKi) was 4.38 in assay [2] and below 4.00 in assay [1]. For `c1cncc(CN2CCN(CC3CCCCN3)CC2)c1` (racemic), in that order: below 4.00 and below 4.00.

Turning to `c1cc(CN2CCN(CC3CCCCN3)CC2)ccn1` (racemic), the negative-log Ki (pKi) in assay [2] and in assay [1] was below 4.00 in each case. As to `O=C(C1CCCCN1)N1CCN(Cc2cccnc2)CC1` (racemic) [SCR01020], the pKi was 4.26 in assay [2] and below 4.00 in assay [1]. `c1cncc([C@@H]2CCCN2)c1` [NORNICOTINE] showed a pKi in assay [1] of 5.92.
